Measured values reported in patent US20080292688A1, “Liposome and preparation method of the same” (Industrial Technology Research Institute, priority 2003, published 2008).
≈ marks a conversion by molar mass, not a printed value.

Assay: physchem
Conditions: Solubility of RA
Protocol: Therefore, TPGS is added with ethanol to increase the solubility of the hydrophobic drug in according to the present invention.

Work on `CC1=C(/C=C/C(C)=C/C=C/C(C)=C/C(=O)O)C(C)(C)CCC1` [RA, All-Trans Retinoic Acid] yielded a solubility (aqueous buffer) of less than 0.1 µg/mL and a solubility (saline or isotonic) of 4 µg/mL (≈ 13.3 µM).
